29 compounds from patent US10104891B2 (priority 2014, dated 2018) can be followed below.

SMILES strings stand for the structures.

What all share (format): in vivo
For one experiment, the system named is Phytophthora infestans. Briefly: whole plant or invertebrate. To be noted: for control value (Test 1): tomato late blight, control value vs untreated section; for pest or weed control at 4 µg/mL: Phytophthora infestans, in Solanum lycopersicum, 96 h, read-out: control value (Test 1).
Experiment [1] has as its system Pseudoperonospora cubensis. The experiment in a line: Test 2: control effect against cucumber downy mildew. The conditions noted are these: control value vs untreated section; for pest or weed control at 4 µg/mL: Pseudoperonospora cubensis, 120 h. The protocol: (§1) A 10% wettable powder created according to the Pharmaceutical Formulation Example 1 was diluted with a Tween20 solution prepared to a concentration of 1/5000, then the compound of formula [1] was prepared to a concentration of 4 ppm. Further, the compound of formula [1] in Test 4 was adjusted to a concentration of 1,000 ppm.
<Test 2 Test of Control Effect Against Cucumber Downy Mildew>
(§2) Test suspension was applied to cucumber at the 2 leaf stage (species: Sagami hanjiro) in an amount of 20 ml per seedling. One day after application, zoospore suspension of Pseudoperonospora cubensis adjusted to a concentration of 1.0×10^4 units/ml was misted/inoculated, and the seedlings were incubated in a moist chamber adjusted to 22° C. for 16 hr. Then, the onset of the disease was induced in the chamber, and the lesion area rate on the leaves 5 days after inoculation was investigated to compute the control value using the formula below. control value={1−onset area rate of the leaves that were applied the test agent/onset area rate of untreated leaves}×100 Computational formula of the control value: […]

A further experiment has as its system Plasmopara viticola. Briefly: Test 3: control effect against grape downy mildew. To be noted: control value vs untreated section; for pest or weed control at 4 µg/mL: Plasmopara viticola, 120 h. The procedure: as §1
<Test 3 Test of Control Effect Against Grape Downy Mildew>
as §2, with “grape seedling” for “cucumber at the 2 leaf stage”, “Neomuscat)” for “Sagami hanjiro)”, “Plasmopara viticola” for “Pseudoperonospora cubensis”

Take `CS(=O)(=O)Oc1ccc(F)c2c1COC(c1csc(C3CCN(C(=O)Cn4nc(C(F)(F)F)cc4C(F)(F)F)CC3)n1)OC2` (stereo not drawn) [Compound 1-87]: the “control value (Test 1)” value with Phytophthora infestans is 100. For the same compound, the “control value (Test 2)” value in experiment [1] was determined as 100. Besides, the “control value (Test 3)” value in the experiment on Plasmopara viticola is 100.

With `CC1OC(c2csc(C3CCN(C(=O)Cn4nc(C(F)(F)F)cc4C(F)(F)F)CC3)n2)OCc2ccccc21` (stereo not drawn) [Compound 1-88], the “control value (Test 1)” value in the experiment on Phytophthora infestans is 100. Further, the “control value (Test 2)” value in experiment [1] amounted to 100. For the same compound, the “control value (Test 3)” value in the experiment with Plasmopara viticola came to 100.

For the compound `O=C(Cn1nc(C(F)(F)F)cc1C(F)(F)F)N1CCC(c2nc(C3OCc4cc5ccccc5cc4CO3)cs2)CC1` [Compound 1-89], the “control value (Test 1)” value in the experiment with Phytophthora infestans came to 80. Besides, in experiment [1], the “control value (Test 2)” value was 100. Moreover, in the experiment with Plasmopara viticola, the “control value (Test 3)” value was 100.

On to `CC(C)(C)c1ccc2c(c1)COC(c1csc(C3CCN(C(=O)Cn4nc(C(F)(F)F)cc4C(F)(F)F)CC3)n1)OC2` (stereo not drawn) [Compound 1-92], for which the “control value (Test 1)” value in the experiment with Phytophthora infestans was 100. In addition, the “control value (Test 2)” value in experiment [1] was determined as 90. Besides, the “control value (Test 3)” value in the experiment with Plasmopara viticola turned out to be 90.

Consider `O=C(Cn1nc(C(F)(F)F)cc1C(F)(F)F)N1CCC(c2nc(C3OCc4cccc(Cl)c4CO3)cs2)CC1` (stereo not drawn) [Compound 1-93], for which the “control value (Test 1)” value in the experiment with Phytophthora infestans is given as 100. The “control value (Test 2)” value in experiment [1] turned out to be 100. Moreover, the “control value (Test 3)” value in the experiment with Plasmopara viticola is on record as 100.

As for `Cc1cc(C(F)(F)F)nn1CC(=O)N1CCC(c2nc(C3OCc4cccc(OC(F)F)c4CO3)cs2)CC1` (stereo not drawn) [Compound 1-94], in the experiment on Phytophthora infestans, the “control value (Test 1)” value was determined as 100. Further, the “control value (Test 2)” value in experiment [1] stood at 100. For the same compound, the “control value (Test 3)” value with Plasmopara viticola is reported as 100.

In the case of `Cc1cc(C(F)(F)F)nn1CC(=O)N1CCC(c2nc(C3OCc4ccc(Br)cc4CO3)cs2)CC1` (stereo not drawn) [Compound 1-98], in the experiment with Phytophthora infestans, the “control value (Test 1)” value came to 100. The “control value (Test 2)” value in experiment [1] is 100. In addition, the “control value (Test 3)” value in the experiment with Plasmopara viticola was found to be 100.

`O=C(Cn1nc(C(F)F)cc1C(F)F)N1CCC(c2nc(C3OCc4ccc(Br)cc4CO3)cs2)CC1` (stereo not drawn) [Compound 1-99]: in the experiment with Phytophthora infestans, the “control value (Test 1)” value is on record as 100. For the same compound, the “control value (Test 2)” value in experiment [1] worked out at 100. In addition, the “control value (Test 3)” value with Plasmopara viticola is listed as 100.

Consider `Cc1cc(C(F)(F)F)nn1CC(=O)N1CCC(c2nc(C3OCc4c(I)ccc(OS(C)(=O)=O)c4CO3)cs2)CC1` (stereo not drawn) [Compound 1-101], for which the “control value (Test 1)” value with Phytophthora infestans is 100. Also, in experiment [1], the “control value (Test 2)” value is listed as 100. The “control value (Test 3)” value with Plasmopara viticola is listed as 100.

`Cc1cc(C(F)(F)F)nn1CC(=O)N1CCC(c2nc(C3OCc4c(Cl)ccc(OS(C)(=O)=O)c4CO3)cs2)CC1` (stereo not drawn) [Compound 1-102]: the “control value (Test 1)” value in the experiment on Phytophthora infestans is recorded as 100. In experiment [1], the “control value (Test 2)” value was 100. Besides, in the experiment with Plasmopara viticola, the “control value (Test 3)” value was found to be 100.

On to `Cc1cc(C(F)(F)F)nn1CC(=O)N1CCC(c2nc(C3OCc4c(OS(C)(=O)=O)ccc(OS(C)(=O)=O)c4CO3)cs2)CC1` [Compound 1-103], for which the “control value (Test 1)” value with Phytophthora infestans turned out to be 100. For the same compound, in experiment [1], the “control value (Test 2)” value came out at 100. The “control value (Test 3)” value in the experiment with Plasmopara viticola came out at 100.

`Cc1cc(C(F)(F)F)nn1CC(=O)N1CCC(c2nc(C3OCc4cccc(C#N)c4CO3)cs2)CC1` (stereo not drawn) [Compound 1-104]: in the experiment with Phytophthora infestans, the “control value (Test 1)” value came out at 100. In experiment [1], the “control value (Test 2)” value is on record as 100. For the same compound, in the experiment with Plasmopara viticola, the “control value (Test 3)” value is reported as 100.

Turning to `Cc1cc(C)n(CC(=O)N2CCC(c3nc(C4OCc5cccc(OS(C)(=O)=O)c5CO4)cs3)CC2)n1` (stereo not drawn) [Compound 1-105], in the experiment with Phytophthora infestans, the “control value (Test 1)” value worked out at 100. Besides, the “control value (Test 2)” value in experiment [1] is given as 100. Further, the “control value (Test 3)” value with Plasmopara viticola amounted to 100.

For `Cc1cc(C(F)(F)F)nn1CC(=S)N1CCC(c2nc(C3OCc4cccc(OS(C)(=O)=O)c4CO3)cs2)CC1` (stereo not drawn) [Compound 1-106], the “control value (Test 1)” value in the experiment with Phytophthora infestans stood at 100. In experiment [1], the “control value (Test 2)” value is 100. For the same compound, the “control value (Test 3)” value in the experiment on Plasmopara viticola was determined as 100.

On to `Cc1cc(C(F)(F)F)nn1CC(=S)N1CCC(c2nc(C3OCc4c(F)ccc(OS(C)(=O)=O)c4CO3)cs2)CC1` (stereo not drawn) [Compound 1-107], for which the “control value (Test 1)” value in the experiment on Phytophthora infestans was 100. Besides, in experiment [1], the “control value (Test 2)” value stood at 100. In the experiment with Plasmopara viticola, the “control value (Test 3)” value is reported as 100.

For `COc1ccc(OS(C)(=O)=O)c2c1COC(c1csc(C3CCN(C(=O)Cn4nc(C(F)(F)F)cc4Cl)CC3)n1)OC2` (stereo not drawn) [Compound 1-108], the “control value (Test 1)” value with Phytophthora infestans was determined as 100. The “control value (Test 2)” value in experiment [1] turned out to be 100. Further, the “control value (Test 3)” value with Plasmopara viticola is 100.

Regarding `COc1ccc(OS(C)(=O)=O)c2c1COC(c1csc(C3CCN(C(=O)Cn4nc(Cl)cc4Cl)CC3)n1)OC2` (stereo not drawn) [Compound 1-109, 4-[4-(6-methoxy-9-methylsulfonyloxy-1,5-dihydro-3H-2,4-benzodioxepin-3-yl)-2-thiazolyl]-1-[2-(3,5-dichloro-1H-pyrazole-1-yl)acetyl]piperidine], the pest or weed control at 4 µg/mL (in the experiment on Phytophthora infestans; in experiment [1]; in the experiment on Plasmopara viticola) was 100% throughout.

For `COc1ccc(Cl)c2c1COC(c1csc(C3CCN(C(=O)Cn4nc(C(F)(F)F)cc4C(F)(F)F)CC3)n1)OC2` (stereo not drawn) [Compound 1-110], the “control value (Test 1)” value in the experiment on Phytophthora infestans came out at 100. The “control value (Test 2)” value in experiment [1] was determined as 100. The “control value (Test 3)” value with Plasmopara viticola was found to be 100.

For `O=C(Cn1nc(C(F)(F)F)cc1C(F)(F)F)N1CCC(c2nc(C3OCc4cccc(Br)c4CO3)cs2)CC1` (stereo not drawn) [Compound 1-111], the “control value (Test 1)” value in the experiment on Phytophthora infestans is on record as 100. Moreover, in experiment [1], the “control value (Test 2)” value is given as 100. In the experiment on Plasmopara viticola, the “control value (Test 3)” value stood at 100.

With `COc1ccc(Cl)c2c1COC(c1csc(C3CCN(C(=O)Cn4nc(C(F)F)cc4C(F)F)CC3)n1)OC2` (stereo not drawn) [Compound 1-112], in the experiment on Phytophthora infestans, the “control value (Test 1)” value came out at 100. Further, the “control value (Test 2)” value in experiment [1] worked out at 100. Moreover, the “control value (Test 3)” value in the experiment with Plasmopara viticola was 100.

Take `O=C(Cn1nc(C(F)(F)F)cc1C(F)(F)F)N1CCC(c2nc(C3OCc4cccc([N+](=O)[O-])c4CO3)cs2)CC1` (stereo not drawn) [Compound 1-114]: in the experiment on Phytophthora infestans, the “control value (Test 1)” value is 100. Besides, in experiment [1], the “control value (Test 2)” value is listed as 100. Moreover, the “control value (Test 3)” value in the experiment on Plasmopara viticola is reported as 100.

Take `COc1ccc(OS(C)(=O)=O)c2c1COC(c1csc(C3CCN(C(=O)Cn4nc(C)cc4C)CC3)n1)OC2` (stereo not drawn) [Compound 1-115, 4-[4-(6-methoxy-9-methylsulfonyloxy-1,5-dihydro-3H-2,4-benzodioxepin-3-yl)-2-thiazolyl]-1-[2-[3,5-dimethyl-1H-pyrazole-1-yl]acetyl]piperidine]: the pest or weed control at 4 µg/mL (in the experiment on Phytophthora infestans; in experiment [1]; in the experiment on Plasmopara viticola) was 100% in each case.

`CS(=O)(=O)Oc1ccc(Cl)c2c1COC(c1csc(C3CCN(C(=O)Cn4nc(C(F)F)cc4C(F)F)CC3)n1)OC2` (stereo not drawn) [Compound 1-116]: the “control value (Test 1)” value in the experiment with Phytophthora infestans worked out at 100. Moreover, the “control value (Test 2)” value in experiment [1] worked out at 100. Besides, the “control value (Test 3)” value in the experiment with Plasmopara viticola is given as 100.

Regarding `COc1ccc(OS(C)(=O)=O)c2c1COC(c1csc(C3CCN(C(=O)Cn4nc(C(F)(F)F)cc4C(F)(F)F)CC3)n1)OC2` (stereo not drawn) [Compound 1-117], the “control value (Test 1)” value with Phytophthora infestans turned out to be 100. In experiment [1], the “control value (Test 2)” value is recorded as 100. The “control value (Test 3)” value in the experiment with Plasmopara viticola is listed as 100.

Consider `CS(=O)(=O)Oc1ccc(Cl)c2c1COC(c1csc(C3CCN(C(=O)Cn4nc(C(F)(F)F)cc4C(F)(F)F)CC3)n1)OC2` (stereo not drawn) [Compound 1-118], for which, in the experiment on Phytophthora infestans, the “control value (Test 1)” value worked out at 100. In addition, in experiment [1], the “control value (Test 2)” value was determined as 100. The “control value (Test 3)” value in the experiment with Plasmopara viticola was 100.

In the case of `CS(=O)(=O)Oc1cccc2c1COC(c1csc(C3CCN(C(=O)Cn4nc(C(Cl)Cl)cc4C(Cl)Cl)CC3)n1)OC2` (stereo not drawn) [Compound 1-119, 4-[4-(6-methylsulfonyloxy-1,5-dihydro-3H-2,4-benzodioxepin-3-yl)-2-thiazolyl]-1-[2-[3,5-bis(dichloromethyl)-1H-pyrazole-1-yl]acetyl]piperidine], the pest or weed control at 4 µg/mL (in the experiment with Phytophthora infestans; in experiment [1]; with Plasmopara viticola) was 100% throughout.

Turning to `Cc1cc(C)n(CC(=O)N2CCC(c3nc(C4OCc5c(F)ccc(OS(C)(=O)=O)c5CO4)cs3)CC2)n1` (stereo not drawn) [Compound 1-120], the “control value (Test 1)” value with Phytophthora infestans came to 100. Also, the “control value (Test 2)” value in experiment [1] came to 100. Also, the “control value (Test 3)” value in the experiment on Plasmopara viticola is 100.

As for `Cc1cc(OS(C)(=O)=O)c2c(c1C)COC(c1csc(C3CCN(C(=O)Cn4nc(C(F)F)cc4C(F)F)CC3)n1)OC2` (stereo not drawn) [Compound 1-121], the “control value (Test 1)” value in the experiment on Phytophthora infestans stood at 100. Moreover, the “control value (Test 2)” value in experiment [1] is on record as 100. Besides, in the experiment on Plasmopara viticola, the “control value (Test 3)” value is 100.

`Cc1cc(OS(C)(=O)=O)c2c(c1C)COC(c1csc(C3CCN(C(=O)Cn4nc(C(F)(F)F)cc4C(F)(F)F)CC3)n1)OC2` (stereo not drawn) [Compound 1-122]: in the experiment on Phytophthora infestans, the “control value (Test 1)” value turned out to be 100. In addition, the “control value (Test 2)” value in experiment [1] stood at 100. For the same compound, the “control value (Test 3)” value in the experiment on Plasmopara viticola was determined as 100.
